Measured values taken from patent US6713506B2, “Tea polyphenol esters and analogs thereof for cancer prevention and treatment” (University of South Florida, priority 2000, dated 2004).

Key:
[1] = molecular target: chymotrypsin-like activity of purified 20S proteasome; assay type: biochemical; details: read-out: IC50 towards the chymotrypsin-like activity of purified 20S proteasome
Protocol: FIG. 8. […] A). […] Initially, 0.5 μg of purified 20S proteasome is incubated with 20 μM of a fluorogenic peptide substrate, Suc-Leu-Leu-Val-Tyr-AMC, for 30 min at 37° C. in 100 μl of assay buffer (20 mM Tris-HCl, pH 8.0) with various concentrations of tannic acid. After incubation, the reaction mixture is diluted to 200 μl with the assay buffer, followed by measurement of the hydrolyzed 7-amido-4-methyl-coumarin (AMC) groups using a fluorometer with an excitation filter of 380 nm and an emission filter of 460 nm. B). […] Tannic acid (0.3 μg/ml) and Glucose (180 μg/ml) are used in the proteasome activity assay as described above. C). […] Purified calpain I (3 μg) protein is incubated with 40 μM of a fluorogenic peptide substrate, Suc-Leu-Tyr-AMC, for 30 min at 37° C. in 100 μl of assay buffer (50 mM Tris-HCl, pH 7.5, containing 50 mM NaCl, 1 mM EDTA, 1 mM EGTA, 5 mM β-Mercaptoethanol, 5 mM CaCl2, and 0.1% CHAPS) in the absence (control) or presence of 5 μg/ml of tannic acid or 0.18 μg/ml of calpeptin (calpain inhibitor).
Inhibition of the proteasome activity in vitro by tea polyphenols—To measure the 20S proteasome chymotrypsin-like activity, 0.5 μg of a purified 20S proteasome (Calbiochem) is incubated with 20 μM of a fluorogenic peptide substrate, Suc-Leu-Leu-Val-Tyr-AMC (Calbiochem), for 30 min at 37° C. in 100 μl of assay buffer (20 mM Tris-HCl, pH 8.0), with or without tea polyphenols (purity >95%; Sigma) or tea extract. After incubation, the reaction mixture is diluted to 200 μl with the assay buffer, followed by measurement of the hydrolyzed 7-amido-4-methyl-coumarin (AMC) groups using a VersaFluor™ Fluorometer with an excitation filter of 380 nm and an emission filter of 460 nm (Bio-Rad).

p27 in MCF-7 tumors = assay: Nude mice bearing human breast MCF-7 tumors, biochemical end points; assay type: in vivo; details: mice pre-fed or injected into the tumors
Excerpt: Treatment of drinking water with green tea, a green tea polyphenol extract or EGCG, or direct injection into tumors of a solution containing a green tea polyphenol extract or EGCG, inhibits breast or other tumor growth in nude mice. In (a) it is shown that antitumor activity of tea polyphenols correlates to their potency to inhibit the proteasome activity. All mice receive a 90-day slow-release subcutaneous (s.c.) estrogen pellet (Innovative Research) in the anterior flank 7 days before tumor inoculation. In Experiment 1, mice (5 per group) are pre-fed with a solution of EGCG, EGC, ECG, EC, a green tea extract (1, 10, and 50 mg/kg) or water three times per week for 2 weeks, followed by s.c. implanting human breast MCF-7 tumor cells in nude mice above the right and left flanks (10^7 cells per flank). When tumors in the control group reach ˜1000 mm^3 the experiment is terminated. […] Evaluation of the antitumor activity of tea polyphenols is determined by measuring the change in tumor size of the treated group compared to the control group. […] Levels of p27 and Bax protein in tumor tissues are measured by Western blotting and immunohistochemistry. […] Bax localization (by immunohistochemistry), processing of caspase-3, cleavage of PARP (by Western blotting) and apoptosis (by TUNEL) are then measured. […]

Chain of chymotrypsin-like activity of purified 20S proteasome (Q9P992 whole entry): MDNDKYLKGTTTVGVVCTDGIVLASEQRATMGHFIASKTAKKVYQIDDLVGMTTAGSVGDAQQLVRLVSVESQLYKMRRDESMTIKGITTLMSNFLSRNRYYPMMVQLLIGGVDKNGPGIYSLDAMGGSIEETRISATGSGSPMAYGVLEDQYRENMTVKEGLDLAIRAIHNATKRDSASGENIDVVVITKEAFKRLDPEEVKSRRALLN

Work on `Oc1cc(O)c2c(c1)O[C@H](c1cc(O)c(O)c(O)c1)[C@H](O)C2` [EGC, (−)-epigallocatechin] yielded an IC50 [1] of 1200 µM.
`O=C(O[C@@H]1Cc2c(O)cc(O)cc2O[C@@H]1c1cc(O)c(O)c(O)c1)c1cc(O)c(O)c(O)c1` [EGCG, (−)-epigallocatechin-3-gallate] was tested, and the “p27 levels in tumors” value (p27 in MCF-7 tumors) was “Increased p27 levels”.
